Laboratory results from US7122679B2, “Multicyclic compounds and the use thereof” (Cephalon, Inc., priority 2000, dated 2006).

Target: recombinant human PARP (Homo sapiens, UniProt P09874)
Assay: PARP activity: transfer of radiolabeled ADP-ribose units from [32P]NAD+ to a protein acceptor
Type: biochemical
Conditions: Table 3
Description: PARP activity was monitored by transfer of radiolabeled ADP-ribose units from [^32P]NAD^+ to a protein acceptor such as histone or PARP itself. […] The reactions were initiated by the addition of 100 μM NAD^+ supplemented with 2 uCi [^32P]NAD^+/mL and maintained at room temperature for 12 minutes. Assays were terminated by the addition of […] and the radiolabeled precipitate was collected on a 96-well filter plate (Millipore, MADP NOB 50), washed with 25% TCA. The amount of acid-insoluble radioactivity, corresponding to polyADP-ribosylated protein, was quantitated in a Wallac MicroBeta scintillation counter.
Single-point inhibition data were calculated by comparing PARP, VEGFR2, or MLK3 activity in the presence of inhibitor to activity in the presence of DMSO only. Inhibition curves for compounds were generated by plotting percent inhibition versus log10 of the concentration of compound. IC50 values were calculated by nonlinear regression using the sigmoidal dose-response (variable slope) equation in GraphPad Prism as follows: y=bottom+(top−bottom)/(1+10^(logIC^50^−x)*Hillslope) where y is the % activity at a given concentration of compound, x is the logarithm of the concentration of compound, bottom is the % inhibition at the lowest compound concentration tested, and top is the % inhibition at the highest compound concentration examined. […]

Sequence of recombinant human PARP (P09874 whole entry): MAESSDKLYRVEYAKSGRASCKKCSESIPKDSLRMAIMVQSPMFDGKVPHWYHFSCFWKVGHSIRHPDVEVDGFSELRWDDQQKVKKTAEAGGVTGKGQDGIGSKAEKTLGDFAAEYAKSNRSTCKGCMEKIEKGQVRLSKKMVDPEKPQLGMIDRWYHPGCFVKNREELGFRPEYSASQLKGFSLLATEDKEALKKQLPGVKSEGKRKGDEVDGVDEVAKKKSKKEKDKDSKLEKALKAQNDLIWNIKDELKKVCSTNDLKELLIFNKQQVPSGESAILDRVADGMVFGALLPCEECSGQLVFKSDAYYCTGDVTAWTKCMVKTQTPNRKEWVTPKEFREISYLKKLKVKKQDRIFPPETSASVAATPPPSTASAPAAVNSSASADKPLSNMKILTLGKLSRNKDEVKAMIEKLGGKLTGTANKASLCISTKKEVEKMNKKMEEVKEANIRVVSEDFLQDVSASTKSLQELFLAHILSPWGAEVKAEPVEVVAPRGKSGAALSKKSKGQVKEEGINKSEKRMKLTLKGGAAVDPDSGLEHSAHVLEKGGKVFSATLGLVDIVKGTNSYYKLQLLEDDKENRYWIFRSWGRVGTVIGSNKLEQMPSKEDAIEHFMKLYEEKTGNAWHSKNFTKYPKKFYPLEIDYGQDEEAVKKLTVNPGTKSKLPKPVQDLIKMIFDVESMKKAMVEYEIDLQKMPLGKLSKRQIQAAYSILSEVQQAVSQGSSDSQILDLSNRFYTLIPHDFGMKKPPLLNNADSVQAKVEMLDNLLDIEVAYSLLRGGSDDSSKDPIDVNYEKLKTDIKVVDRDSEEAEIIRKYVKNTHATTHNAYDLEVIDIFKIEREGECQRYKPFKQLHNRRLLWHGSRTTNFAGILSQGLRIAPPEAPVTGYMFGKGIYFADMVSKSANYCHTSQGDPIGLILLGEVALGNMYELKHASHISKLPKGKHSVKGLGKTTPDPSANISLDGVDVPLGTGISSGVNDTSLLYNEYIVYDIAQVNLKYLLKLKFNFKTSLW

NCCCCC(N)C(=O)N1C(=O)c2c3c(c4[nH]c5ccc(Br)cc5c4c2C1=O)CCC3 (stereo not shown) [Compound 6e] showed an IC50 of 69 nM.
